Results reported in patent US20260137819A1 (Radionetics Oncology, Inc., priority 2022, published 2026).
pEC50: −log10 of the molar value. Starred links: 1 amine or outer side, 2 acyl side, 3 side chain; linkers in the order of their positions; H or OH if unused. Non-standard residues stand in square brackets, D forms with d. Residues, ends and D or L forms follow the SMILES beside them. Groups on a side chain read outwards from the residue. *: point of attachment. X1 = COc1cc2c(cc1-c1cccc(N*)c1)-c1c(c(C(=O)N3CCOCC3(C)C)nn1-c1cc(Cl)cc(Cl)c1)CO2; DOTA = O=C(O)CN1CCN(CC(=O)O)CCN(CC(=O)*)CCN(CC(=O)O)CC1; Suc = O=C(CCC(=O)[*:2])[*:1]

What follows are compounds tested against T1, human follicle-stimulating hormone receptor (FSHR) (Homo sapiens, UniProt P23945) (assay: Measurement of agonist cAMP production by activation of human FSHR). Conditions: CHO-K1 human FSHR cells, 30 minutes at 37° C., HTRF cAMP kit; read-out: hFSHR Agonist cAMP EC50.
T1 construct: host or cells: CHO-K1
T1 sequence (P23945 18-695): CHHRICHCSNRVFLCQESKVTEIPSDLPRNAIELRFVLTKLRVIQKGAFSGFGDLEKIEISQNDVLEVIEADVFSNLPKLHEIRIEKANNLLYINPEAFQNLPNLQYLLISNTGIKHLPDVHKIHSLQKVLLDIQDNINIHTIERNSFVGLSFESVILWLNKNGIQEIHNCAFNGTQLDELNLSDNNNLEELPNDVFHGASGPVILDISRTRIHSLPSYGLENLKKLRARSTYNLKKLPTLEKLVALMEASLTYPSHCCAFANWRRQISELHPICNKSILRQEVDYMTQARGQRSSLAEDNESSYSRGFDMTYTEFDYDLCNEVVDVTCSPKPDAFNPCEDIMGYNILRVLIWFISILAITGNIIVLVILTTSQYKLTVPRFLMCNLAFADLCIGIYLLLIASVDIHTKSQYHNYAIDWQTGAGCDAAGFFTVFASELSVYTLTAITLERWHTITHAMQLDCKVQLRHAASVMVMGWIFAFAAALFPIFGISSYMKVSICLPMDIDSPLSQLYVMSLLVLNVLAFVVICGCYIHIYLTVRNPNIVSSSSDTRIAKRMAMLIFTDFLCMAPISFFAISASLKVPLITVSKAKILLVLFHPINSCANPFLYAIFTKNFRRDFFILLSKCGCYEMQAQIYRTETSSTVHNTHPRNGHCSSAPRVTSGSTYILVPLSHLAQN
Type: cell-based
In short: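 cAMP output was measured by HTRF after 30 min at 37 °C agonist exposure (0–10,000 nM final) in stably FSHR-transfected CHO-K1 cells. Lysate cAMP was read off a standard curve and fitted to obtain half-maximal EC50.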
COc1cc2c(cc1-c1cccc(OCCOCCOCCOCCOCCNC(=O)[C@H](CS(=O)(=O)O)NC(=O)CN3CCN(CC(=O)O)CCN(CC(=O)O)CCN(CC(=O)O)CC3)c1)-c1c(c(C(=O)N3CC(=O)NCC3(C)C)nn1-c1cc(Cl)cc(Cl)c1)CO2 [Compound 75] was tested, and the pEC50 was 7.00 to 8.00.
COc1cc2c(cc1-c1cccc(OCCCNC(=O)[C@@H](CCCNC(=N)N)NC(=O)CCNC(=O)CN3CCN(CC(=O)O)CCN(CC(=O)O)CCN(CC(=O)O)CC3)c1)-c1c(c(C(=O)N3CCOCC3(C)C)nn1-c1cc(Cl)cc(Cl)c1)CO2 [Compound 73] was tested, and the pEC50 was > 8.00.
COc1cc2c(cc1-c1cncc(NCCCNC(=O)CCOCCNC(=O)CN3CCN(CC(=O)O)CCN(CC(=O)O)CCN(CC(=O)O)CC3)c1)-c1c(c(C(=O)N3CCOCC3(C)C)nn1-c1cc(F)cc(F)c1)CO2 [Compound 62] was tested, and the pEC50 was 7.00 to 8.00.
COc1cc2c(cc1-c1cncc(NC(=O)CNC(=O)CC[C@@H](NC(=O)CNC(=O)CN3CCN(CC(=O)O)CCN(CC(=O)O)CCN(CC(=O)O)CC3)C(=O)O)c1)-c1c(c(C(=O)N3CCOCC3(C)C)nn1-c1cc(Cl)cc(Cl)c1)CO2 [Compound 55, (R)-2,2′,2″-(10-(2-((2-((1-carboxy-4-((2-((5-(1-(3,5-dichlorophenyl)-3-(3,3-dimethylmorpholine-4-carbonyl)-7-methoxy-1,4-dihydrochromeno[4,3-c]pyrazol-8-yl)pyridin-3-yl)amino)-2-oxoethyl)amino)-4-oxobutyl)amino)-2-oxoethyl)amino)-2-oxoethyl)-1,4,7,10-tetraazacyclododecane-1,4,7-triyl)triacetic acid--2,2,2-trifluoroacetic acid (1/1)] was tested, and the pEC50 was 7.00 to 8.00.
With COc1cc2c(cc1-c1cncc(OCCCNC(=O)[C@@H](CCCNC(=N)N)NC(=O)CCNC(=O)CN3CCN(CC(=O)O)CCN(CC(=O)O)CCN(CC(=O)O)CC3)c1)-c1c(c(C(=O)N3CCCN(C(=O)C4CCC4)CC3)nn1-c1cccs1)CO2 [Compound 78, (R)-2,2′,2″-(10-(2-((3-((1-((3-((5-(3-(4-(cyclobutanecarbonyl)-1,4-diazepane-1carbonyl)-7-methoxy-1-(thiophen-2-yl)-1,4-dihydrochromeno|4,3-c|pyrazol-8-yl)pyridin-3-yl)oxy)propyl)amino)-5-guanidino-1-oxopentan-2-yl)amino)-3-oxopropyl)amino)-2-oxoethyl)-1,4,7,10-tetraazacyclododecane-1,4,7-triyl)triacetic acid--2,2,2-trifluoroacetic acid (1/1)] the pEC50 was > 8.00.
With COc1cc2c(cc1-c1cncc(NC(=O)CCNC(=O)[C@@H](CC(=O)O)NC(=O)[C@@H](CC(=O)O)NC(=O)[C@H](N)CCCNC(=O)CN3CCN(CC(=O)O)CCN(CC(=O)O)CCN(CC(=O)O)CC3)c1)-c1c(c(C(=O)N3CCOCC3(C)C)nn1-c1cc(Cl)cc(Cl)c1)CO2 [Compound 99, 2,2′,2″-(10-((7R,10R,13R)-7-amino-10,13-bis(carboxymethyl)-18-((5-(1-(3,5dichlorophenyl)-3-(3,3-dimethylmorpholine-4-carbonyl)-7-methoxy-1,4-dihydrochromeno|4,3-c|pyrazol-8-yl)pyridin-3-yl)amino)-2,8,11,14,18-pentaoxo-3,9,12,15-tetraazaoctadecyl)-1,4,7,10-tetraazacyclododecane-1,4,7-triyl)triacetic acid] the pEC50 was 7.00 to 8.00.
With COc1cc2c(cc1-c1cccc(NC(=O)NCCOCCOCCOCCOCCOCCOCCNC(=O)CN3CCN(CC(=O)O)CCN(CC(=O)O)CCN(CC(=O)O)CC3)c1)-c1c(c(C(=O)N(C)C(C)(C)C)nn1-c1cc(Cl)cc(Cl)c1)CO2 [Compound 1, 2,2′,2″-(10-(1-((3-(3-(tert-butyl(methyl)carbamoyl)-1-(3,5-dichlorophenyl)-7-methoxy-1,4-dihydrochromeno[4,3-c]pyrazol-8-yl)phenyl)amino)-1,24-dioxo-5,8,11,14,17,20-hexaoxa-2,23-diazapentacosan-25-yl)-1,4,7,10-tetraazacyclododecane-1,4,7-triyl)triacetic acid] the pEC50 was > 8.00.
COc1cc2c(cc1-c1cccc(NC(=O)CCC(=O)NCCCC[C@@H](NC(=O)[C@@H](CO)NC(=O)[C@@H](CC(N)=O)NC(=O)[C@@H](CO)NC(=O)[C@@H](CC(N)=O)NC(=O)[C@@H](C)NC(=O)CN3CCN(CC(=O)O)CCN(CC(=O)O)CCN(CC(=O)O)CC3)C(=O)N[C@H](C)C(N)=O)c1)-c1c(c(C(=O)N3CCOCC3(C)C)nn1-c1cc(Cl)cc(Cl)c1)CO2 [Compound 85] ({DOTA}-[dA][dN][dS][dN][dS][dK]([Suc-X1])[dA]-NH2) was tested, and the pEC50 was 7.00 to 8.00.
In the case of COc1cc2c(cc1-c1cccc(NC(=O)CCCCCNC(=O)C(CS(=O)(=O)O)NC(=O)CN3CCN(CC(=O)O)CCN(CC(=O)O)CCN(CC(=O)O)CC3)c1)-c1c(c(C(=O)N3CCOCC3(C)C)nn1-c1cc(Cl)cc(Cl)c1)CO2 (stereo in doubt) [Compound 64, (R)-2,2′,2″-(10-(2-((1-((6-((3-(1-(3,5-dichlorophenyl)-3-(3,3-dimethylmorpholine-4-carbonyl)-7-methoxy-1,4-dihydrochromeno[4,3-c]pyrazol-8-yl)phenyl)amino)-6-oxohexyl)amino)-1-oxo-3-sulfopropan-2-yl)amino)-2-oxoethyl)-1,4,7,10-tetraazacyclododecane-1,4,7-triyl)triacetic acid], the pEC50 was > 8.00.
With COc1cc2c(cc1-c1cccc(NC(=O)CCC(=O)N(CCOCCOCCC(=O)O)C3CCN(C(=O)CN4CCN(CC(=O)O)CCN(CC(=O)O)CCN(CC(=O)O)CC4)CC3)c1)-c1c(c(C(=O)N3CCOCC3(C)C)nn1-c1cc(Cl)cc(Cl)c1)CO2 [Compound 15, 2,2′,2″-(10-(2-(4-(N-(2-(2-(2-carboxyethoxy)ethoxy)ethyl)-4-((3-(1-(3,5-dichlorophenyl)-3-(3,3-dimethylmorpholine-4-carbonyl)-7-methoxy-1,4-dihydrochromeno[4,3-c]pyrazol-8-yl)phenyl)amino)-4-oxobutanamido)piperidin-1-yl)-2-oxoethyl)-1,4,7,10-tetraazacyclododecane-1,4,7-triyl)triacetic acid] the pEC50 was > 8.00.
In the case of COc1cc2c(cc1-c1ccc(NC(=O)NCCOCCOCCOCCOCCOCCOCCNC(=O)CN3CCN(CC(=O)O)CCN(CC(=O)O)CCN(CC(=O)O)CC3)cc1)-c1c(c(C(=O)N(C)C(C)(C)C)nn1-c1cc(Cl)cc(Cl)c1)CO2 [Compound 5, 2,2′,2″-(10-(1-((4-(3-(tert-butyl(methyl)carbamoyl)-1-(3,5-dichlorophenyl)-7-methoxy-1,4-dihydrochromeno[4,3-c]pyrazol-8-yl)phenyl)amino)-1,24-dioxo-5,8,11,14,17,20-hexaoxa-2,23-diazapentacosan-25-yl)-1,4,7,10-tetraazacyclododecane-1,4,7-triyl)triacetic acid], the pEC50 was 7.00 to 8.00.
Compound COc1cc2c(cc1-c1cccc(NC(=O)C3CCC(CNC(=O)C(CS(=O)(=O)O)NC(=O)CN4CCN(CC(=O)O)CCN(CC(=O)O)CCN(CC(=O)O)CC4)CC3)c1)-c1c(c(C(=O)N3CCOCC3(C)C)nn1-c1cc(Cl)cc(Cl)c1)CO2 [Compound 65, 2,2′,2″-(10-(2-(((R)-1-((((1r,4R)-4-((3-(1-(3,5-dichlorophenyl)-3-(3,3-dimethylmorpholine-4-carbonyl)-7-methoxy-1,4-dihydrochromeno[4,3-c]pyrazol-8-yl)phenyl)carbamoyl)cyclohexyl)methyl)amino)-1-oxo-3-sulfopropan-2-yl)amino)-2-oxoethyl)-1,4,7,10-tetraazacyclododecane-1,4,7-triyl)triacetic acid] has a pEC50 of 7.00 to 8.00.
In the case of COc1cc2c(cc1-c1cccc(NC(=O)CCOCCOCCNC(=O)[C@H](CS(=O)(=O)O)NC(=O)CN3CCN(CC(=O)O)CCN(CC(=O)O)CCN(CC(=O)O)CC3)c1)-c1c(c(C(=O)N3CCOCC3(C)C)nn1-c1cc(Cl)cc(Cl)c1)CO2 [Compound 69], the pEC50 was > 8.00.
In the case of COc1cc2c(cc1-c1cccc(NC(=O)CCOCCOCCOCCOCCOCCOCCNC(=O)CN3CCN(CC(=O)O)CCN(CC(=O)O)CCN(CC(=O)O)CC3)c1)-c1c(c(C(=O)N(C)C(C)(C)C)nn1-c1cc(Cl)cc(Cl)c1)CO2 [Compound 3A, indium (III) 2,2′,2″-(10-(24-((3-(3-(tert-butyl(methyl)carbamoyl)-1-(3,5-dichlorophenyl)-7-methoxy-1,4-dihydrochromeno[4,3-c]pyrazol-8-yl)phenyl)amino)-2,24-dioxo-6,9,12,15,18,21-hexaoxa-3-azatetracosyl)-1,4,7,10-tetraazacyclododecane-1,4,7-triyl)triacetate], the pEC50 was > 8.00.

Same assay, conditions: hFSHR Agonist cAMP EC50, CHO-K1 human FSHR cells, 30 minutes at 37° C., HTRF cAMP kit
Work on COc1cc2c(cc1-c1cccc(NC(=O)CCC(=O)NCCCC[C@@H](NC(=O)[C@@H](C)NC(=O)[C@@H](CCC(=O)O)NC(=O)[C@@H](C)NC(=O)[C@@H](CCC(=O)O)NC(=O)[C@@H](C)NC(=O)CN3CCN(CC(=O)O)CCN(CC(=O)O)CCN(CC(=O)O)CC3)C(=O)N[C@H](C)C(N)=O)c1)-c1c(c(C(=O)N3CCOCC3(C)C)nn1-c1cc(Cl)cc(Cl)c1)CO2 [Compound 95] yielded a pEC50 of 7.00 to 8.00.
